Structures are written as SMILES.

This note sets out measurements from paper PMC10064330, “Reversible Dual-Covalent Molecular Locking of the 14-3-3/ERRγ Protein–Protein Interaction as a Molecular Glue Drug Discovery Approach” (Journal of the American Chemical Society, 2023).

The assay has as its target T1, 14-3-3γ/ERRγ complex (Homo sapiens, UniProt P61981+P62508).
T1 construct: made in house; host or cells: E. coli NiCo21 (DE3)
The experiment in a line: Fluorescence anisotropy (FA): 14-3-3γ titration to fluorescein-ERRγ phosphopeptide with 100 μM compound. The note with it: for SF100 / stabilization (SF100) at high TCEP / stabilization of 14-3-3γ/ERRγ complex (SF100, fold): 100 μM compound; for SF100: 50 μM TCEP; for stabilization (SF100) at high TCEP: 1 mM TCEP; for stabilization of 14-3-3γ/ERRγ complex (SF100, fold): 24 h incubation; for stabilization factor SF100, Replicate 1 (Table S2) / stabilization factor SF100, Replicate 2 (Table S2) / stabilization factor SF100, Replicate 3 (Table S2) / stabilization factor SF100, Average (Table S2): KD DMSO control / apparent KD with 100 μM compound, 24 h; for stabilization factor SF100, Average (Table S2): average of three experiments. The class given is binding. As to the method: The stabilization of the ERRγ/14-3-3γ complex by the molecular locks was assessed using a fluorescence anisotropy (FA) assay where 14-3-3γ was titrated into a fluorescently labeled ERRγ phosphopeptide in the absence or presence of a 100 μM molecular lock (Figure 2a,b); this compound concentration was selected based on a FA compound titration assay (Figure S1).
Experimental Section Biophysical Assays
14-3-3γ protein expression (FA, TSA, MS assays)
A pPROEX HTb expression vector encoding the human 14-3-3 protein gamma (14-3-3γ) with a N-terminal his6-tag was transformed by heat shock into NiCo21 (DE3) competent cells. Single colonies were cultured in 50 mL LB medium (100 µg/mL ampicillin). After overnight incubation at 37 °C, cultures were transferred to 2 L TB media (100 µg/mL ampicillin, 1 mM MgCl2) and incubated at 37 °C until an OD600 nm of 0.8 -1.2 was reached. Protein expression was then induced with 0.4 mM isopropyl-β-d-thiogalactoside (IPTG), and cultures were incubated overnight at 18 °C. Cells were harvested by centrifugation (8600 rpm, 20 minu tes, 4 °C) and resuspended in lysis buffer (50 mM Hepes, pH 8.0, 300 mM NaCl, 12.5 mM imidazole, 5 mM MgCl2, 2 mM βME) containing cOmplete™ EDTA-free Protease Inhibitor Cocktail tablets (1 tablet/100 ml lysate) and benzonase ( 5 µl/100 ml). After lysis using a C3 Emulsiflex-C3 homogenizer (Avestin), the cell lysate was cleared by centrifugation (20000 rpm, 30 minutes, 4 °C) and purified using Ni2+-affinity chromatography (Ni -NTA superflow cartridges, Qiagen). Typically two 5 mL columns (flow 5 mL/min) were use d for a 2 L culture in which the lysate was loaded on the column , washed with 10 CV wash buffer (50 mM Hepes, pH 8.0, 300 mM NaCl, 25 mM imidazole, 2 mM βME), and eluted in several fractions (2-4 CV) of elution buffer (50 mM Hepes, pH 8.0, 300 mM NaCl, 250 mM imidazole, 2 mM βME). Fractions containing the 14 -3-3 protein were combined and dialyzed into 25 mM HEPES pH 8.0, 100 mM NaCl, 10 mM MgCl2, 500 µM TCEP. Finally, the protein was concentrated to ∼60 mg/mL, analyzed Q-Tof LC/MS, and aliquots were flash-frozen for storage at −80 °C.
14-3-3σΔc C38N protein expression (Crystallography)
A pPROEX HTb expression vector encoding the human 14-3-3 protein sigma truncated after T231 (14-3-3σΔc), mutated C38N, and containing a N-terminal his6-tag was transformed by heat shock into NiCo21 (DE3) competent cells. Single colonies were cultured in 50 mL LB medium (100 µg/mL ampicillin). After overnight incubation at 37 °C, cultures were transferred to 2 L TB media (100 µg/mL ampicillin, 1 mM MgCl2) and incubated at 37 °C until an OD600 nm of 0.8-1.2 was reached. Protein expression was then induced with 0.4 mM isopropyl-β-d-thiogalactoside (IPTG), and cultures were incubated overnight at 18 °C. Cells were harvested by centrifugation (8600 rpm, 20 minutes, 4 °C) and resuspended in lysis buffer (50 mM Hepes, pH 8.0, 300 mM NaCl, 12.5 mM imidazole, 5 mM MgCl2, 2 mM βME) containing cOmplete™ EDTA-free Protease Inhibitor Cocktail tablets (1 tablet/ 100 ml lysate) and benzonase (5 µl/ 100 ml). After lysis using a C3 Emulsiflex-C3 homogenizer (Avestin), […]
chromatography (Ni-NTA superflow cartridges, Qiagen). Typically two 5 mL columns were used for a 2 L culture in which the lysate was loaded on the column , washed with 10 CV wash buffer (50 mM Hepes, pH 8.0, 300 mM NaCl, 25 mM imidazole, 2 mM βME), and eluted with several fractions (2 -4 CV) of elution buffer (50 mM Hepes, pH 8.0, 300 mM NaCl, 250 mM imidazole, 2 mM βME). Fractions containing the 14-3-3 protein were combined and dialyzed into 25 mM HEPES pH 8.0, 200 mM NaCl, 10 mM MgCl 2, 2 mM βME. In addition, 1 mg TEV was added for each 100 mg purified protein to remove the purification tag. The cleaved sample was then again loaded on a 10 mL Ni-NTA column to separate the cleaved product from the expression tag and residual uncleaved protein. The flowthrough was loaded on a Superdex 75 pg 16/60 size exc lusion column (GE Life Sciences) using […]

T1 sequence (P61981 whole entry, other chains not shown): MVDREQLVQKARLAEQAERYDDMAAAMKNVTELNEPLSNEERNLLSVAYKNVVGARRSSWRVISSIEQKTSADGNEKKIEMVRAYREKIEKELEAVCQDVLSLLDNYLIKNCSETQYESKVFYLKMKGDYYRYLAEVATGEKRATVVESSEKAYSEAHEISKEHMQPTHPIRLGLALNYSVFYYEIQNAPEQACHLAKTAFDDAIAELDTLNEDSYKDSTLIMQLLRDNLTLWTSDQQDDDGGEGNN

As to `CN(C)CCSSCCN(C)C(=O)c1cccc(F)c1` [compound 1, reference compound], the SF100 is 5; the “stabilization (SF100) at high TCEP” value was “completely abolished”; the “stabilization of 14-3-3γ/ERRγ complex (SF100, fold)” value is on record as “five-fold”; the “stabilization factor SF100, Replicate 1 (Table S2)” value is given as 5.3. The “stabilization factor SF100, Replicate 2 (Table S2)” value stood at 3.7; the “stabilization factor SF100, Replicate 3 (Table S2)” value is reported as 4.6; the “stabilization factor SF100, Average (Table S2)” value is on record as 4.6.
For `CN(C)CCNC(=O)c1ccc(C=O)c(F)c1` [compound 3], the “stabilization of 14-3-3γ/ERRγ complex (SF100, fold)” value turned out to be 1; the “stabilization factor SF100, Replicate 1 (Table S2)” value amounted to 1.0; the “stabilization factor SF100, Replicate 2 (Table S2)” value worked out at 1.0; the “stabilization factor SF100, Replicate 3 (Table S2)” value was 0.9. The “stabilization factor SF100, Average (Table S2)” value is given as 1.0.
On to `CN(C)CCSSCCN(C)C(=O)c1ccc(C=O)c(F)c1` [compound 5], for which the “stabilization (SF100) at high TCEP” value is “completely abolished”; the “stabilization factor SF100, Replicate 1 (Table S2)” value turned out to be 27.0; the “stabilization factor SF100, Replicate 2 (Table S2)” value worked out at 17.8; the “stabilization factor SF100, Replicate 3 (Table S2)” value came to 16.5. Further, the “stabilization factor SF100, Average (Table S2)” value was determined as 20.4.
As to `CN(C)CCSSCCN(C)C(=O)c1cc(Br)cc(C=O)c1` [compound 10], the SF100 is listed as 37; the “stabilization (SF100) at high TCEP” value is reported as “completely abolished”; the “stabilization factor SF100, Replicate 1 (Table S2)” value came to 37.6; the “stabilization factor SF100, Replicate 2 (Table S2)” value was found to be 34.1. Also, the “stabilization factor SF100, Replicate 3 (Table S2)” value was determined as 38.8 and the “stabilization factor SF100, Average (Table S2)” value came out at 36.9.
